Columns and labels:
[1] = test system: DCs; assay: DC activation and cytokine expression by flow cytometry; format: cell-based, C57BL/6j mice; conditions: for CD86 expression in CD11c+ cells: equivalent amount as PaKG MPs, vs no treatment control and PaKG MP condition
Procedure: Briefly, femur and tibia from mice were isolated and kept in wash media composed of DMEM/F-12 (1:1) with L-glutamine, 10% fetal bovine and 1% penicillin-streptomycin. The ends of the bones were cut, and bone marrow was flushed out with 10 mL wash media and mixed to make a homogeneous suspension. Red blood cells were lysed by incubating and resuspending the pellet in 3 mL 1× red blood cell (RBC) lysis buffer for 3 minutes at 4° C. The cell suspension was then washed twice with wash media and re-suspended in DMEM/F-12 with L-glutamine, 10% fetal bovine serum, 1% sodium pyruvate, 1% non-essential amino acids (VWR, Radnor, Pa.), 1% penicillin-streptomycin and 20 ng/ml GM-CSF (DC media). All % values shown here are vol/vol. This cell suspension was then seeded in a tissue culture-treated T-75 flask (day 0). After 48 hours (day 2), floating cells were collected, centrifuged, re-suspended in fresh media and seeded on low attachment plates for 6 additional days. Half of the media was changed every alternate day. At the end of 6 days (day 8), cells were lifted from the low attachment wells by gentle pipetting, re-suspended and seeded on tissue culture-treated polystyrene plates for 2 more days before treating them. […] Purity, yield, and immaturity of DCs (CD11c, MHC-II and CD86) were verified via immunofluorescence staining and flow cytometry. Dendritic cells were isolated from at least 3 separate mice for each experiment.

[2] = test system: DCs; assay: Seahorse Assay (ECAR and OCR)
Procedure: Lipopolysaccharide (LPS) was used as a positive control, and no treatment was used as a negative control.
Sequential injections were performed with D-glucose (10 mM), oligomycin (1 mM), and 2-deoxyglucose (100 mmol/L). The extracellular acidification rates (ECAR) after the injection of D-glucose was a measure of glycolysis, and the ECAR after the injection of oligomycin represented maximal glycolytic capacity. Non-glycolytic activity was quantified by the measure of ECAR after the injection of 2-deoxyglucose. Samples were analyzed with 10 technical replicates.
For oxidative phosphorylation, 24 hours after cell seeding, media was changed to unbuffered DMEM containing 2 mM glutamine, 1 mM pyruvate, and 10 mM glucose. […] The oxygen consumption rate (OCR) after the injection of oligomycin was a measure of ATP-linked respiration and the OCR after the injection of FCCP represented maximal respiratory capacity. Basal respiration was quantified by the measure of OCR prior to the injection of oligomycin. Samples were analyzed with 10 technical replicates.

Lipopolysaccharide [LPS]
frequency of MHC-II+CD86+ in DCs ([1]; vs untreated immature DCs): significantly upregulated

O=C(O)CCC(=O)C(=O)O [soluble aKG, alpha-ketoglutarate]
CD86 expression in CD11c+ cells [1]: did not significantly change
glycolysis levels compared to PaKG MPs ([2]; DCs): higher
glycolysis ([2]; vs no treatment control (PaKG MPs also vs LPS)): decreased

OCCCCCCCCCCO [1,10-decanediol]
CD86 expression in CD11c+ cells [1]: did not significantly change

— patent US20220226499A1, “Metabolite Delivery for Modulating Metabolic Pathways of Cells” (Arizona Board of Regents on Behalf of Arizona State …, priority 2019, published 2022)
